# Measured values taken from patent US5378690A, “New renin-inhibitory oligopeptides, their preparation and their use” (Sankyo Company, Limited, priority 1986, dated 1995).
# Molecular target: T1, human renin (Homo sapiens, UniProt P00797)
# T1 sequence (P00797 67-406): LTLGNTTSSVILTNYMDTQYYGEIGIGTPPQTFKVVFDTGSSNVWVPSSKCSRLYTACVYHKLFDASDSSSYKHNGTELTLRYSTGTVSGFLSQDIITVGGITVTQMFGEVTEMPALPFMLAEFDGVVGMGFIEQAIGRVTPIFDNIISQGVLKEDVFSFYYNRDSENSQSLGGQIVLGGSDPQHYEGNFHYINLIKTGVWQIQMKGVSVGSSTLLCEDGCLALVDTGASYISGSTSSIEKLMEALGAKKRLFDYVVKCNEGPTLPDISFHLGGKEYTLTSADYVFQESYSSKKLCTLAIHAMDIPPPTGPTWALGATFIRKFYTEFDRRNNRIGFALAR
# Experiment: Inhibition of renin activity
# Format: biochemical
# Settings: 1×10^-6 M of the test compound, sheep angiotensinogen, pH 7.3, 10 minutes at 37° C., mean of 3 or 4 experiments
# Procedure: The ability of various compounds of the invention to inhibit the activity of renin was determined according to the following method, which follows essentially the procedure of Kokubu et al. [Hypertension, 5, 191-197 (1983)].
# Specifically, each test compound was dissolved in 60% v/v aqueous ethanol. Human renin activity in the presence and absence of each compound was measured using sheep angiotensinogen. The total volume of 1 ml of assay mixture contained 0.1 mole/litre phosphate buffer (pH 7.3), human renin (equivalent to 0.5 ng angiotensin I per ml per minute), sheep angiotensinogen (equivalent to 200 ng angiotensin I) 1×10^-6 M of the test compound, 6% v/v ethanol and angiotensinase inhibitors (10 mmole/litre sodium ethylenediaminetetraacetate and 3.4 mmole/litre 8-hydroxyquinoline). The mixture was allowed to react for 10 minutes at 37° C., and then the reaction was stopped by placing the reaction tube in a boiling water bath for 5 minutes. The mixture was then centrifuged and the supernatant (0.05-0.1 ml) was used to assay remaining angiotensin I.
# An identical experiment was carried out, as a control, except that the test compound was omitted. From the values obtained were calculated the % inhibition of renin activity achieved by each test compound. The results are shown in the following Table 9, in which the compounds of the invention are identified by the numbers of the Examples given hereafter in which are described their preparation. The values given are the mean of 3 or 4 experiments.
row,Compound,Inhibitory Activity (%)
1,"CCN(CC(=O)N[C@@H](Cc1cccc2ccccc12)C(=O)N[C@@H](Cc1cscn1)C(=O)N[C@@H](CC1CCCCC1)[C@@H](O)CC(=O)NCCN1CCOCC1)Cc1ccccc1 [Example 64, N-{N-[N-(N-Benzyl-N-ethylaminoacetyl)-3-(1-naphthyl)-L-alanyl]-3-(4-thiazolyl)-L-alanyl}-cyclostatin-(2-morpholinoethyl)amide]",97.5
2,"CC(C)N(CC(=O)N[C@@H](Cc1cccc2ccccc12)C(=O)N[C@@H](Cc1cscn1)C(=O)N[C@@H](CC1CCCCC1)[C@@H](O)CC(=O)NCCN1CCOCC1)Cc1ccccc1 [Example 65, N-{N-[N-(N-Benzyl-N-isopropylaminoacetyl)-3-(1-naphthyl)-L-alanyl]-3-(4-thiazolyl)-L-alanyl}-cyclostatin-(2-morpholinoethy)amide]",97.4
3,"COc1ccccc1N1CCN(CC(=O)N[C@@H](Cc2cccc3ccccc23)C(=O)N[C@@H](Cc2cscn2)C(=O)N[C@@H](CC2CCCCC2)[C@@H](O)CC(=O)NCCN2CCOCC2)CC1 [Example 66, N-[N-{N-[4-(2-Methoxyphenyl)-1-piperazinyl]acetyl-3-(1-naphthyl)-L-alanyl}-3-(4-thiazolyl)-L-alanyl]-cyclostatin-(2-morpholinoethyl)amide]",95.7
4,"CC(C)C[C@H](NC(=O)[C@H](Cc1cccc2ccccc12)NC(=O)CN(C)Cc1ccccc1)C(=O)N[C@@H](CC1CCCCC1)[C@@H](O)CC(=O)NCCCN1CCCC1=O [Example 73, N-{N-[N-(N-Benzyl-N-methylaminoacetyl)-3-(1-naphthyl)-L-alanyl]-L-leucyl}-cyclostatin-[3-(2-oxo-1-pyrrolidinyl)propyl]amide]",97.7
5,"CC[C@H](C)CNC(=O)C[C@H](O)[C@H](CC1CCCCC1)NC(=O)[C@H](Cc1cscn1)NC(=O)[C@H](Cc1cccc2ccccc12)NC(=O)CN1CCOCC1 [Example 98, N-{N-[N-Morpholinoacetyl-3-(1-naphthyl)-L-alanyl]-3-(4-thiazolyl)-L-alanyl}-cyclostatin-[(S)-2-methylbutyl]amide]",98.1
6,"CC[C@H](C)[C@@H](CN1CCOCC1)NC(=O)C[C@H](O)[C@H](CC1CCCCC1)NC(=O)[C@H](Cc1cscn1)NC(=O)[C@H](CC1CCCCC1)NC(=O)CN(C)Cc1ccccc1 [Example 100, N-{N-[N-(N-Benzyl-N-methylaminoacetyl)-3-cyclohexyl-L-alanyl]-3-(4-thiazolyl)-L-alanyl}-cyclostatin-[(1S,2S)-2-methyl-1-(morpholinomethyl)butyl]amide]",96.1
7,"CN(CC(=O)N[C@@H](CC1CCCCC1)C(=O)N[C@@H](Cc1cscn1)C(=O)N[C@@H](CC1CCCCC1)[C@@H](O)CC(=O)NCCN1CCOCC1)Cc1ccccc1 [Example 101, N-{N-[N-(N-Benzyl-N-methylaminoacetyl)-3-cyclohexyl-L-alanyl]-3-(4-thiazolyl)-L-alanyl}-cyclostatin-(2-morpholinoethyl)amide]",94.9
8,"CCCNC(=O)C[C@H](O)[C@H](CC1CCCCC1)NC(=O)[C@H](Cc1cscn1)NC(=O)[C@H](Cc1cccc2ccccc12)NC(=O)CN1CCOCC1 [Example 103, N-{N-[N-Morpholinoacetyl-3-(1-naphthyl)-L-alanyl]-3-(4-thiazolyl)-L-alanyl}-cyclostatin-propylamide]",98.6
9,"CCCCNC(=O)C[C@H](O)[C@H](CC1CCCCC1)NC(=O)[C@H](Cc1cscn1)NC(=O)[C@H](Cc1cccc2ccccc12)NC(=O)CN1CCOCC1 [Example 104, N-{N-[N-Morpholinoacetyl-3-(1-naphthyl)-L-alanyl]-3-(4-thiazolyl)-L-alanyl}-cyclostatin-butylamide]",98.6
10,"CC(C)CNC(=O)C[C@H](O)[C@H](CC1CCCCC1)NC(=O)[C@H](Cc1cscn1)NC(=O)[C@H](Cc1cccc2ccccc12)NC(=O)CN1CCOCC1 [Example 105, N-{N-[N-Morpholinoacetyl-3-(1-naphthyl)-L-alanyl]-3-(4-thiazolyl)-L-alanyl}-cyclostatin-isobutylamide]",98.0
11,CC(C)CN(CC(C)C)C(=O)C[C@H](O)[C@H](CC1CCCCC1)NC(=O)[C@H](Cc1cscn1)NC(=O)[C@H](Cc1cccc2ccccc12)NC(=O)CN1CCOCC1 [Example 106],98.2
12,"CCCCCNC(=O)C[C@H](O)[C@H](CC1CCCCC1)NC(=O)[C@H](Cc1cscn1)NC(=O)[C@H](Cc1cccc2ccccc12)NC(=O)CN1CCOCC1 [Example 107, N-{N-[N-Morpholinoacetyl-3-(1-naphthyl)-L-alanyl]-3-(4-thiazolyl)-L-alanyl}-cyclostatin-pentylamide]",98.4
13,CC(C)CCNC(=O)C[C@H](O)[C@H](CC1CCCCC1)NC(=O)[C@H](Cc1cscn1)NC(=O)[C@H](Cc1cccc2ccccc12)NC(=O)CN1CCOCC1 [Example 108],98.6
14,"CCCCCCNC(=O)C[C@H](O)[C@H](CC1CCCCC1)NC(=O)[C@H](Cc1cscn1)NC(=O)[C@H](Cc1cccc2ccccc12)NC(=O)CN1CCOCC1 [Example 110, N-{N-[N-Morpholinoacetyl-3-(1-naphthyl)-L-alanyl]-3-(4-thiazolyl)-L-alanyl}-cyclostatin-hexylamide]",98.3
15,"CC(C)CCNC(=O)C[C@H](O)[C@H](CC1CCCCC1)NC(=O)[C@H](Cc1cscn1)NC(=O)[C@H](Cc1cccc2ccccc12)NC(=O)CN(C)Cc1ccccc1 [Example 111, N-{N-[N-(Benzyl-N-methylaminoacetyl)-3-(1-naphthyl)-L-alanyl]-3-(4-thiazolyl)-L-alanyl}-cyclostatin-isopentylamide]",96.0
16,"CCCCNC(=O)C[C@H](O)[C@H](CC1CCCCC1)NC(=O)[C@H](Cc1cscn1)NC(=O)[C@H](Cc1cccc2ccccc12)NC(=O)CN(C)C1CCCCC1 [Example 112, N-{N-[N-(N-Cyclohexyl-N-methylaminoacetyl)-3-(1-naphthyl)-L-alanyl]-3-(4-thiazolyl)-L-alanyl}-cyclostatin-butylamide]",98.0
17,N-{N-[(2R)-2-(1-Naphthylmethyl)-3-thiomorpholinocarbonylpropionyl]-3-(4-thiazolyl)-DL-alanyl}-cyclostatin-(2-morpholinoethyl)amide [Example 9],94.0
18,N-{N-[N-(N-Benzyl-N-ethylaminoacetyl)-3-(1-naphthyl)-L-alanyl]-L-leucyl}-cyclostatin-(2-morpholinoethyl)amide [Example 69],96.1
19,N-{N-[N-(N-Benzyl-N-methylaminoacetyl)-3-(1-naphthyl)-L-alanyl]-L-tryptophyl}-cyclostatin-[3-(2-oxo-1-pyrrolidinyl)propyl]amide [Example 76],97.1
